Test results: a melting point compilation (Tetko et al.; mined from patent text by program, amines drawn as free bases though some values may be those of a salt)

| melting point [°C] | Compound |
| --- | --- |
| 102 to 104 | CCCCCCOc1cc(-c2ccc3cc4c(cc3c2)C(C)(C)CCC4(C)C)ccc1C(=O)OC |
| 139 to 140 | CON(C)C(=O)COc1nnc(-c2ccc3c(c2)CCO3)o1 |
| 294 to 297 | Fc1ccc2nc[nH]c(=S)c2c1 |
| > 268 | Oc1ccc(-c2cnc3cnc(-c4cccc(O)c4)nc3c2)cc1 |
| 204 to 207 | CC(C)c1ccc2c(c1)C(=O)N(C)C(c1ccc(C(C)(C)C)cc1)C2C(=O)O (configuration not stated) |
| 224 to 225 | O=C(Nc1cccc(CN2C(=O)[C@H]3CCC[C@H]3N(C(=O)CN3C(=O)c4ccccc4C3=O)c3ccccc32)c1)OCc1ccccc1 (relative stereo) |
| 150 | COc1cc(C=CC(=O)C=Cc2ccc(OC(C)=O)c(OC)c2)ccc1OC(C)=O |
| 225 to 229 | Cc1cc(-c2ccccc2O)nn1-c1ccccc1 |
| 147 to 149 | CC(=O)NC(=O)CSC(c1ccccc1)(c1ccccc1)c1ccccc1 |
| 147 to 148 | Fc1ccc2[nH]cc(CCCN3CCN(c4cccc(Cl)c4Cl)CC3)c2c1 |
| 194 | O=C1Nc2ccc(I)cc2C1=NNC(=O)c1ccc(O[C@@H](Cc2ccccc2)C(=O)OCc2ccccc2)cc1 |
| 104 to 105 | COc1ccc(CNc2nc(SC)ncc2C(=O)CP(=O)(OC)OC)cc1Cl |
| 153 to 159 | Cc1nc(-c2ccc(C#N)cc2)sc1C(=O)N(CC(=O)O)[C@H](C)[C@](O)(Cn1cncn1)c1ccc(F)cc1F |
| 93 to 95 | COc1ccc(-c2ccc(C#N)cc2)nc1 |
| 145 to 147 | CCCCc1nn(-c2cc([N+](=O)[O-])ccc2Cl)c(=O)[nH]1 |
| 65 to 75 | Cc1cc(C(O)(C=Cc2ccc(Cl)cc2)C(F)(F)F)ccc1NC(=O)c1cccc(I)c1C(=O)NC(C)C (configuration not stated) |
| 139 to 142 | Cn1cc(-c2cccc(C(F)(F)F)c2)c(=O)c(-c2ccc(Cl)cc2Cl)c1 |
| 150 to 152 | CCCOCCc1ccc(-c2ccc3c(c2)C=C(C(=O)Nc2ccc(CN(C)C4CCOCC4)cc2)CCS3(=O)=O)c(Cl)c1 |
| 167 to 168 | O=C(Nc1ccc(F)cc1)c1ccccc1 |
| 144 to 146 | COCCNC(=O)COc1ccn2nc(-c3ccccc3)c(-c3ccc(=O)n(C(C)C)n3)c2c1 |
| 241 to 243 | NC(Cc1cnc2ccccc2c1)C(=O)O (configuration not stated) |
| 110 to 112 | COc1cnc(C(O)Cc2c(Cl)cncc2Cl)cc1OC1CCCC1 (configuration not stated) |
| 150 | O=C(c1cccnc1-c1ccncc1)N1CCC(O)(Cc2ccccc2)CC1 |

| melting point [°C] | Compound |
| --- | --- |
| 144 | Cc1cccc(NC(=O)NC2N=C(C3CC3)c3cccc(C)c3N(CC(=O)C3CCCCC3)C2=O)c1 (configuration not stated) |
| 100 to 101 | CCOC(=O)c1c2ccc(Cl)cc2c(-c2ccccc2)n1CCCC(C)C1OCCO1 (configuration not stated) |
| 97.1 to 101 | COc1ccccc1-c1cccc(-n2cnc(-c3nc(C)no3)c2)c1 |
| 202 to 204 | O=S(=O)(NC1CCCCC1)c1ccc(Nc2nccc(Cl)n2)cc1 |
| 134 to 137 | CCCCCNc1nc(SC)[nH]c2nccc1-2 |
| 272 | Nc1scc2c1C(=O)c1cc(Cl)c(Cl)cc1-2 |
| 123 to 124 | COc1cccc(OC)c1C(=O)C=Cc1ccccc1 |
| 278 to 279 | N#CC(=Cc1ccc(F)cc1[N+](=O)[O-])C(N)=O |
| 97.5 | C=CCO[C@H]1[C@@H](OCc2ccccc2)[C@@H](OCc2ccccc2)[C@H](OCc2ccccc2)[C@@H](OCc2ccccc2)[C@]1(O)CC=C (racemic) |
| 71 to 72 | COc1ccc(CF)c(CN(C(C)=O)c2cc(F)ccc2Oc2ccccc2)c1 |
| 158 to 159 | COc1cccc(CC(=O)O)c1OCCCc1cn(-c2ccc(NC(C)=O)cn2)nc1C(C)C |
| 160 to 163 | O=C(c1cccc(C(F)(F)F)c1F)N1CCN(Cc2cncc(Nc3cc[nH]n3)n2)CC1 |
| 249 to 251 | CC1(C)Cc2c(c(N3CCCC3)nc3sc4c(NCc5ccccn5)ncnc4c23)CO1 |
| 305 to 307 | FC(F)(F)Oc1ccc2[nH]c(S)nc2c1 |
| 106 | O=C1CCCC(=O)C1C(=O)c1ccc(C(F)(F)F)c(N2CCSCC2)n1 |
| 187 to 188 | CCOC(=O)N(C)c1c(OC)cc(Cc2cnc(N)nc2N)cc1OC |
| 119 to 122 | c1ccc2c(c1)NCCc1nccn1-2 |
| 180 to 182 | COc1cc(OC)nc(NC(=O)NS(=O)(=O)Cc2ccccc2S(C)(=O)=O)n1 |
| 70 | CC(N)C(=O)NC(CCC(=O)NC(CC=CCC(=O)O)C(=O)O)C(=O)O (configuration not stated) |
| 356 to 358 | COc1cc2[nH]c(=O)[nH]c(=O)c2cc1Cl |
| 90 to 92 | CSc1nc(O)nn1C(C)C |
| 135 to 137 | CCCOc1ccc(S(=O)(=O)N2CCN(CC)CC2)cc1-c1nc2cc3ncn(Cc4ccccc4)c3cc2c(=O)[nH]1 |
| 153 to 154 | Cc1c(C)c2c(c(C)c1NC(=O)CC(C)(C)C)C(c1ccc(CC(C)C)cc1)CO2 (configuration not stated) |

| melting point [°C] | Compound |
| --- | --- |
| 101 to 102 | COc1cc(CN(C)c2nn(-c3ccccc3)cc2C=O)ccc1OCc1nc(-c2ccco2)oc1C |
| 318 to 320 | CCOc1cc2c(cc1OC)Cc1c([nH]cnc1=O)N2 |
| 107 to 111 | C[C@@H](NC(=O)c1sc(-c2ccc(Cl)cc2)cc1N)[C@](O)(Cn1cncn1)c1ccc(F)cc1F |
| 122 to 126 | CCN1C(=O)C2C3C=CC(CC3)C2(c2ccc(Cl)c(Cl)c2)C1=O (configuration not stated) |
| 118 to 119 | CC(c1ccc(Oc2ccccc2)cc1)N(O)C(N)=O (configuration not stated) |
| 178 to 180 | COCCOc1cc2ncc(C#N)c(Cl)c2cc1OC |
| 135 to 137 | N=C(NCCCc1c[nH]cn1)NC1CCN(c2ccc(C3=NNC(=O)CC3CO)cc2[N+](=O)[O-])CC1 (configuration not stated) |
| 132 to 134 | COC(=O)C1Cc2c([nH]c3ccccc23)CN1C(=S)SC (configuration not stated) |
| 225 to 226 | O=C1c2ccccc2-c2c1c1cc3c(cc1c(=O)n2CCCNS(=O)(=O)c1ccccc1)OCO3 |
| 138 to 142 | O=C(C(c1ccccc1)n1cnc2[nH]ncc2c1=S)N1CCC(C2C=C(O)C=CN2)CC1 (configuration not stated) |
| 217 to 219 | Cn1cc(Br)cc(Nc2ccncn2)c1=O |
| 148 to 150 | COc1cnc(NCCCOc2cccc(CN3CCCCC3)c2)[nH]c1=O |
| 170 | Cc1cc(C)cc(N(CCCC(N)=O)Cc2ccc3nc(NCCCN4CCOCC4)n(Cc4ncccc4O)c3c2)c1 |
| 192 to 194 | CS(=O)(=O)c1ccc(-c2cnn(-c3ccc(F)c(F)c3)c(=O)c2Oc2ccc(Cl)cc2)cc1 |
| 97 to 99 | CC=NN(C(=O)c1ccc(Cl)cc1)c1ccc(OC)c(F)c1 |
| 209 to 212 | O=Cc1ccc2c3c1ccc1cccc(c13)C2 |
| 116 | O=C1C(=O)N(c2cccc(C(F)(F)F)c2)C(=O)N1c1ccccc1 |
| 110 to 120 | COc1cc(C=CC(CCc2ccco2)=NO)ccc1O |
| 187 to 189 | C#CCOC(=O)[C@H](Cc1c[nH]cn1)NC(=O)C(Cc1cccc2ccccc12)Cc1cccc2ccccc12 |
| 155 to 158 | CCCc1c(OCC(O)COc2cc(NC(=O)c3nnn[nH]3)c(C)cc2Br)ccc(C(C)=O)c1O (configuration not stated) |
| 98 to 100 | O=C(O)c1sccc1OC(F)F |
| 84.5 to 86.5 | COc1ccc(-c2nc(SCS(C)=O)[nH]c2-c2ccc(OC)cc2)cc1 (configuration not stated) |
| 269 | CC1(C)CCc2cc(C(=O)c3ccc4cc(C(=O)O)ccc4c3)ccc2O1 |

| melting point [°C] | Compound |
| --- | --- |
| 87 to 91.5 | ClCc1ccc(CN=C(Nc2ccccc2-c2ccccc2)Nc2ccccc2-c2ccccc2)cc1 |
| 152 | CCc1cccc(CC(=O)O)c1OCCCc1cn(-c2ccc(Br)cn2)nc1C(C)C |
| 180 to 182 | CCOC(=O)c1c(Cn2cncn2)nc2sc3ncccc3c2c1-c1ccc(OC)c(OC)c1 |
| 171 to 173 | CN(C)CC1CCc2c(c3cc(C(N)=O)ccc3n2C)C1=O (configuration not stated) |
| 271 to 272 | O=C(C#Cc1ccc(C(=O)O)cc1)Nc1ccccc1 |
| 103 to 104 | CC(C)(C)OC(=O)CON=C(C(=O)O)c1ccsc1 |
| 80 to 82 | CCOc1ccc(N(Cc2ccccc2)Cc2ccccc2)cc1 |
| 70 | Nc1cc(C(F)(F)F)ccc1NC1CCCCC1 |
| 91 to 96 | Cc1nc2cc(-n3cccc3)ccc2s1 |
| 252 | COc1ccc(Cn2c(=O)[nH]c3ccc(C(=O)NCc4ccc5c(c4)OCO5)cc3c2=O)cc1 |
| 159 to 161 | C=CCNC(=O)c1cnc(SC)nc1NC(C)C |
| 130 | CCCc1cc(C(O)(CC)CC)ccc1-c1cc(O)ccc1CC |
| 184 to 185 | N#CCc1c[nH]c2ccc(CS(N)(=O)=O)cc12 |
| 218 to 220 | CCCCc1nc2c(N)nc3ccccc3c2n1CC1(O)CCCCC1 |
| 208 | CCOC(=O)C1=C(C)Nc2nc(N3CCOCC3)nc(N3CCOCC3)c2C1c1ccsc1 (configuration not stated) |
| 94 to 95 | CC(C)(C)OC(=O)NCc1ccccc1N |
| 78 to 80 | COC(=O)c1cc([N+](=O)[O-])c(F)cc1F |
| 118 to 122 | Sc1ccc2ccncc2c1Cl |
| 279 to 281 | COc1ccccc1C(=O)Nc1ccc(CN2C(=O)[C@H]3CCC[C@H]3N(C(=O)CN3C(=O)c4ccccc4C3=O)c3ccccc32)cc1 (relative stereo) |
| 135 to 137 | CC(=O)Oc1ccc(C2COc3c(ccc(OC(C)=O)c3C)C2O)cc1 (configuration not stated) |
| 132 to 133 | COc1ccc(-c2ccc(C(C)O)cc2)cc1 (single isomer, unassigned; (+)) |
| 214 to 215 | CC(C)(C)OC(=O)N1CCn2c(c(C(N)=O)c(C#N)c2-c2ccccc2)C1 |

| Compound | melting point [°C] |
| --- | --- |
| Fc1c(F)c(F)c2c(CCNCc3cccc(OCC(F)(F)F)c3)c[nH]c2c1F | 107 to 108 |
| COC(=O)c1nc(Cl)n2c1CN=C(c1ccccc1Cl)c1cc(Cl)ccc1-2 | 200 to 202 |
| [N-]=[N+]=Nc1cc(OCCO)ncn1 | 49 to 50 |
| NNC1=Nc2ccc(Cl)cc2N(c2ccccc2)C(=O)C1 | 91 to 93 |
| OC(c1ccc(Cl)cc1)(c1ccc(Cl)cc1)C1CCNCC1 | 184 to 188 |
| N#CN=[N+]([O-])c1ccc2c(c1)OCO2 | 145 to 147 |
